Source: US12391698B2, “Substituted piperidines and piperazines and methods for the treatment of CNS disorders” (SUVEN LIFE SCIENCES LIMITED, priority 2022, dated 2025)
Structures can show the parent of a compound that is named as a salt. Where two headings read alike, the source gives them in different places.

Columns and labels:
dopamine receptor = assay: Reserpine-induced dihydroxyphenylalanine (DOPA) accumulation assay in rat striatum; assay type: in vivo; details: apomorphine 0.1 mg/kg, s.c., rat, reserpine 5.0 mg/kg
Description: Reserpine (5.0 mg/kg, s.c.) was injected, after which rats were fasted for 18 h before sacrifice. […] Each rat was sacrificed and the striatum was dissected out of the whole brain on ice. Each striatum was weighed and homogenized individually in buffer containing 0.01 N hydrochloric acid and 0.2 mg/ml L-cysteine. Supernatants were subjected for quantification of DOPA using HPLC coupled to electrochemical detector.

[1] = biological target: T1, cloned human 5-HT1A receptor (Homo sapiens, UniProt P08908); assay: Determination of Ki at 5-HT1A receptor (radioligand binding, [3H]-8-Hydroxy DPAT); details: HEK293-EBNA recombinant cells; [3H]-8-Hydroxy DPAT 0.8 nM; read-out: Ki h5-HT1A
T1 construct: expressed in transfected cells; host or cells: HEK293-EBNA
T1 sequence (P08908 1-422): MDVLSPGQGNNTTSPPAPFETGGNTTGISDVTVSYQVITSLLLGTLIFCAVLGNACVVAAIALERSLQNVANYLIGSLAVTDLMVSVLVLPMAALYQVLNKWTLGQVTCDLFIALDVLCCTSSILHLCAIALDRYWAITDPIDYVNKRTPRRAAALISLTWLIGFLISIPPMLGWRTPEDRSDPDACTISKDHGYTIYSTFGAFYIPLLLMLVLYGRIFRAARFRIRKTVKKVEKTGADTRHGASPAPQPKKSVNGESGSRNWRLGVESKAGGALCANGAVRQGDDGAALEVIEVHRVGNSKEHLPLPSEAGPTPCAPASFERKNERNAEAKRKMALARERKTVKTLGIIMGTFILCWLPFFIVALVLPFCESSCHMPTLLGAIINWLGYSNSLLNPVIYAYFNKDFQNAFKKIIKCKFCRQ
Description: (§1) Compounds were tested according to the following procedure.
• Receptor source: Recombinant mammalian cells (HEK293-EBNA) • Radioligand: [^3H]-8-Hydroxy DPAT (200 Ci/mmol) • Final ligand concentration: 0.8 nM • Non-specific determinant: 0.1 mM U92016A • Reference compound: U92016A • Positive control: U92016A Incubation Conditions:
(§2) Reactions were carried out in buffer with pH 7.4 containing 50 mM Tris-HCl, 0.5 mM EDTA, 10 mM MgSO4, 0.1% Ascorbic acid for 2 h at r.t. The reaction was terminated by rapid vacuum filtration onto the glass fiber filters. Radioactivity trapped onto the filters was determined and compared to the control values in order to ascertain any interactions of the test compound(s) with cloned human 5-HT1A receptor binding site.

[2] = biological target: T2, hD2S (cloned human dopamine D2S receptor) (Homo sapiens, UniProt P14416); assay: Determination of Ki at D2S receptor (radioligand binding, [3H]-Raclopride); details: CHO-K1 recombinant cells; [3H]-Raclopride 4 nM; read-out: Ki hD2S
T2 construct: expressed in transfected cells; host or cells: CHO-K1
Description: as §1
(§3) • Receptor source: Recombinant mammalian cells (CHO-K1) • Radioligand: [^3H]-Raclopride (80.8 Ci/mmol) • Final ligand concentration: 4 nM • Non-specific determinant: 0.1 mM Haloperidol • Reference compound: Haloperidol • Positive control: Haloperidol Incubation Conditions:
as §2, with “120” for “0.5”, “NaCl, 5” for “EDTA, 10”, “KCl, 5 mM MgCl2, 1 mM EDTA” for “MgSO4, 0.1% Ascorbic acid”, “dopamine […]” for “5-HT1A”

[3] = biological target: cloned human SERT receptor (Homo sapiens, UniProt P31645); assay: Determination of Ki at SERT receptor (SPA binding, [3H]-Citalopram); details: HEK293 recombinant cells, [3H]-Citalopram 2 nM, read-out: Ki hSERT
Description: as §1
• Receptor source: Recombinant mammalian cells (HEK293) • Radioligand: [^3H]-Citalopram (80.8 Ci/mmol) • Final ligand concentration: 2 nM • Non-specific determinant: 0.1 mM Venlafaxine • Reference compound: Venlafaxine • Positive control: Venlafaxine Incubation Conditions:
Reactions were carried out in buffer with pH 7.4 containing 50 mM Tris-HCl, 150 mM NaCl, 5 mM KCl and scintillation proximity assay (SPA) beads (0.1 mg/well) for 3 h at r.t. Radioactivity proximal to SPA beads was determined by scintillation proximity assay and compared to the control values in order to ascertain any interactions of the test compound(s) with cloned human SERT receptor binding site.
Reference: Journal of Pharmacology and Experimental Therapeutics, 1987, 242 (1), 364-371.

[4] = biological target: T3, cloned human 5-HT2A receptor (Homo sapiens, UniProt P28223); assay: Determination of Ki at 5-HT2A receptor (radioligand binding, [3H]-Ketanserine); details: CHO-K1 recombinant cells; [3H]-Ketanserine 1.25 nM; read-out: Ki h5-HT2A
T3 construct: expressed in transfected cells; host or cells: CHO-K1
Description: as §1
as §3, with “[^3H]-Ketanserine (41.9” for “[^3H]-Raclopride (80.8”, “1.25” for “4”, “1-Napthyl piperazine (1-NP)” for “Haloperidol”
as §2, with “4” for “0.5”, “CaCl2),” for “EDTA, 10 mM MgSO4,”, “1” for “2”, “5-HT2A” for “5-HT1A”

[5] = Rodent brain penetration study; assay type: in vivo; details: rat, brain/plasma, po, fed male Wistar rats, 3 mg/kg p.o., mean ± S.D, n = 3, read-out: Rat Brain Penetration (Cbrain/Cplasma) at 3 mg/kg, p.o. @ 1 h
Description: Male Wistar rats (260±40 g) were used as experimental animals. Three animals were housed in each cage. Animals were given water and food ad libitum throughout the experiment and maintained on a 12 h light/dark cycle.
Brain penetration was determined in discrete manner in rats. One day prior to dosing, male Wistar rats were acclimatized and randomly grouped according to their body weight. At each time point (0.50, 1 and 2 h), n=3 animals were used.
The test compounds were suitably preformulated and administered orally at (free base equivalent) 3 mg/kg. Blood samples were removed via cardiac puncture under isoflurane anesthesia. The animals were sacrificed to collect brain tissue. Plasma was separated and brain samples were homogenized. Plasma and brain homogenates were stored frozen at −20° C. until analysis. The concentrations of the test compounds in plasma and brain were determined using LC-MS/MS method.
The test compounds were quantified in plasma and brain homogenate by qualified LC-MS/MS method using suitable extraction technique in the calibration range of 1-500 ng/mL. Study samples were analyzed using calibration samples in the batch and quality control samples spread across the batch. Extent of brain-plasma ratio (Cbrain/Cplasma) was calculated.

[6] = Rodent pharmacokinetic study; assay type: in vivo, Male Wistar rats; details: rat, plasma, mean ± S.D, n = 3; for bioavailability: oral 3 mg/kg vs intravenous 1 mg/kg, read-out: F (Bioavailability)
Description: Male Wistar rats (260±50 g) were used as experimental animals. Animals were housed individually in polypropylene cage. Two days prior to study, male Wistar rats were anesthetized with isoflurane for surgical placement of jugular vein catheter. Rats were randomly divided for oral (3 mg/kg) and intravenous (1 mg/kg) dosing (n=3/group) and fasted overnight before oral dosing (p.o.). However, food and water were provided ad libitum to the rats allocated for intravenous dosing.
At pre-determined time points, blood samples were collected through jugular vein and replenished with an equivalent volume of normal saline. Collected blood was transferred into a labeled eppendorf tube containing 10 μL of heparin as an anticoagulant. Typically blood samples were collected at 0.08, 0.25, 0.5, 1, 2, 4, 6, 8, and 24 h post dose. Blood samples were centrifuged at 4000 rpm for 10 min. Plasma was separated and stored frozen at −80° C. until analysis. The concentrations of the test compounds were quantified in plasma by qualified LC-MS/MS method using suitable extraction technique. The test compounds were quantified in the calibration range around 1-1000 ng/mL in plasma. Study samples were analyzed using calibration samples in the batch and quality control samples spread across the batch.
Pharmacokinetic parameters Cmax, AUCt, t1/2. Clearance and Bioavailability (F) were calculated using standard non-compartmental model by using Phoenix WinNonlin 6.0.4 version software package.

[7] = biological target: T4, recombinant rat 5-HT7 receptor (Rattus norvegicus, UniProt P32305); assay: Determination of Kb at 5-HT7 receptor, pCRE-Luc reporter gene assay in CHO cells; assay type: cell-based
T4 construct: expressed in transfected cells
Description: A stable CHO cell line expressing recombinant rat 5-HT7 receptor and pCRE-Luc reporter system was used for cell-based assay. The assay offers a non-radioactive based approach to determine binding of a compound to GPCRs. In this specific assay, the level of intracellular cAMP which is modulated by activation or inhibition of the receptor is measured. The recombinant cells harbor luciferase reporter gene under the control of cAMP response element.
The above cells were grown in 96 well clear bottom white plates in Hams F12 medium containing 10% fetal bovine serum (FBS). Prior to the addition of compounds or standard agonist, cells were serum starved overnight. Increasing concentrations of test compound were added along with 1 μM of serotonin in Opti-MEM medium to the cells. The incubation was continued at 37° C. in CO2 incubator for 4 hours. Medium was removed and cells were washed with phosphate buffered saline. The cells were lysed and luciferase activity was measured in a Luminometer. Luminescence units were plotted against the compound concentrations using GraphPad Prism software. EC50 values of the compounds were defined as the concentration required in reducing the luciferase activity by 50%. The Kb values were calculated by feeding the concentration of agonist used in the assay and its EC50 value in the same software.

[8] = biological target: T4, recombinant rat 5-HT7 receptor; assay: as above; assay type: cell-based; remark: listed apart in the source
[9] = intravenous (bolus) 1 mg/kg, male Wistar rats
[10] = oral (gavage) 3 mg/kg, fasted male Wistar rats

Sequence of cloned human SERT receptor (P31645 whole entry): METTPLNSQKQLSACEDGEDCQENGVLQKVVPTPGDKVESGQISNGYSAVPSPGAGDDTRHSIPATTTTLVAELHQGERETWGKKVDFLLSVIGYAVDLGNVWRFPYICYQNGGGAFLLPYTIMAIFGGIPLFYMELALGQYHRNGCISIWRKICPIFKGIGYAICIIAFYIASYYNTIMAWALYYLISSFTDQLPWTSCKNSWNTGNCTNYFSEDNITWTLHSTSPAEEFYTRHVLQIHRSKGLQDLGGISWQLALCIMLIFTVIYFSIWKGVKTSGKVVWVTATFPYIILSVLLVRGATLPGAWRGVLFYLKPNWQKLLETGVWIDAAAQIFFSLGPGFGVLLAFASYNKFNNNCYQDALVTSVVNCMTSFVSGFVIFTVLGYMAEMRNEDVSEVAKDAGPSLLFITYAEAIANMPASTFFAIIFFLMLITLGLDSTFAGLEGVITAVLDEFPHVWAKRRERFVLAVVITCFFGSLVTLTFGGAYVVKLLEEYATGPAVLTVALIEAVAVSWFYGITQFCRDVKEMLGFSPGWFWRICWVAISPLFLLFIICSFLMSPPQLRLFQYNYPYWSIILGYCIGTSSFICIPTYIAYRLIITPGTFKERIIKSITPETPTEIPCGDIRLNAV
T3 sequence (P28223 whole entry): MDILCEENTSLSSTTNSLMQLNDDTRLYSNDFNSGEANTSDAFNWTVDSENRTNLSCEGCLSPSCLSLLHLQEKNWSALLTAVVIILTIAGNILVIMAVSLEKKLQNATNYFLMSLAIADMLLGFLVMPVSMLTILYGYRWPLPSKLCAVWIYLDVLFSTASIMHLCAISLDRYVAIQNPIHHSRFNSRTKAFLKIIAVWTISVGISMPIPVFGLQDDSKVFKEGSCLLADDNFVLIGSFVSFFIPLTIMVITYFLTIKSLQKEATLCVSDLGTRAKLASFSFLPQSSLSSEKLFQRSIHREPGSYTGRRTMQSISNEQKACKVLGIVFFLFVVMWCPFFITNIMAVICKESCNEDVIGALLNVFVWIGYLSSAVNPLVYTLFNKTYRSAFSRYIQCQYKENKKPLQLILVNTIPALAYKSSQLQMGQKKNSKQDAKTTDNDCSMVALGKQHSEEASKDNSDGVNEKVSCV
T4 sequence (P32305 whole entry): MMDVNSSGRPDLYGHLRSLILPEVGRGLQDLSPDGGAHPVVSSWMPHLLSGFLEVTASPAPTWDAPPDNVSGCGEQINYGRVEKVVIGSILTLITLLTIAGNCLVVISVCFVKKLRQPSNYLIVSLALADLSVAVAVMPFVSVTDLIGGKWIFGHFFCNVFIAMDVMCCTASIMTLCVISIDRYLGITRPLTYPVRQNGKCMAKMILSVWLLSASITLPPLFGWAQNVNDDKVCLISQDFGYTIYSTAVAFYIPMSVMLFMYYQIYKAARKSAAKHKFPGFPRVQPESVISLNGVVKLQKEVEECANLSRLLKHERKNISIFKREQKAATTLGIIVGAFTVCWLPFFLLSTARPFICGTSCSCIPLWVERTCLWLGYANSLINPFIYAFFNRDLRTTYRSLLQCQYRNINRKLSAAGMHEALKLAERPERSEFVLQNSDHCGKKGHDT
T2 sequence (P14416 1-414 isoform P14416-2): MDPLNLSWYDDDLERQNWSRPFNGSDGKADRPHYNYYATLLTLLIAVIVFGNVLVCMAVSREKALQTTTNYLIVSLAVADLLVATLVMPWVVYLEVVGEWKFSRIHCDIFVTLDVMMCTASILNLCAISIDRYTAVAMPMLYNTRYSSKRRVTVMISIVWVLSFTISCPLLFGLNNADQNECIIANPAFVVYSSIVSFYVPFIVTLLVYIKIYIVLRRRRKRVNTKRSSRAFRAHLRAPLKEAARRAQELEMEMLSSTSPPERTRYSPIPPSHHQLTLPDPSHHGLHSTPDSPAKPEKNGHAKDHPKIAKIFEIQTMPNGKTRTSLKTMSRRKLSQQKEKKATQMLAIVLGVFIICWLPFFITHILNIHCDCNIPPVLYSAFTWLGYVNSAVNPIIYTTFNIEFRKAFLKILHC

Row | change in reserpine-induced DOPA accumulation in striatum (dopamine receptor) | SMILES | Ki [1] [nM] | Ki [2] [nM] | Ki ([3]; cells printed in μM) [µM] | Ki [4] [nM] | Kp at 1 h [5] | AUC(0-t) [6, 9] [ng·h/mL] | clearance [6, 9] [mL/min/kg] | half-life [6, 9] [min] | bioavailability ([6]; male Wistar rats) [%] | AUC(0-t) [6, 10] [ng·h/mL] | Cmax [6, 10] [ng/mL] | half-life [6, 10] [min] | Ki [3] [µM] | antagonistic activity at rat recombinant 5-HT7 receptor ([7]; pCRE-Luc reporter gene assay) | Kb ([7]; rat receptor, with 1 μM serotonin, luciferase readout, read-out: Kb at 5-HT7 receptor) [nM] | agonist activity at rat recombinant 5-HT7 receptor [8]
1 | significant decrease | CN1CCc2cccc3c2[C@H]1Cc1ccc(O)c(O)c1-3 [apomorphine, reference compound] |  |  |  |  |  |  |  |  |  |  |  |  |  |  |  | 
2 |  | O=C1C[C@H]2CCCN2C(=O)N1C[C@H]1CCCC[C@H]1CN1CCC(c2noc3cc(F)ccc23)CC1 [Example 29, 2-{2-[4-(6-Fluoro-benzo[d]isoxazol-3-yl)-piperidin-1-ylmethyl]-cyclohexylmethyl}-tetrahydro-pyrrolo[1,2-c]pyrimidine-1,3-dione oxalate] | 10 | 0.2 | > 10 | 0.8 | 2.73 ± 0.23 | 291 ± 17 | 57 ± 3 | 60 ± 6 | 4.6 ± 2 | 40 ± 15 | 37 ± 14 | 54 ± 6 |  |  |  | 
3 |  | O=C1C[C@@H]2CCCN2C(=O)N1CCCCN1CCC(c2noc3cc(F)ccc23)CC1 [Example 5, 2-{4-[4-(6-Fluoro-benzo[d]isoxazol-3-yl)-piperidin-1-yl]-butyl}-tetrahydro-pyrrolo[1,2-c]pyrimidine-1,3-dione] | 14.7 | 7.3 | > 10 | 0.7 | 1.06 ± 0.46 | 226 ± 11 | 74 ± 3.4 | 30 ± 6 | 22 ± 9 | 151 ± 61 | 152 ± 44 | 42 ± 6 |  |  |  | 
4 |  | O=C1C[C@@H]2COCCN2C(=O)N1CCCCN1CCN(c2nsc3ccccc23)CC1 [Example 18, 7-[4-(4-Benzo[d]isothiazol-3-yl-piperazin-1-yl)-butyl]-tetrahydro-pyrimido[6,1-c][1,4]oxazine-6,8-dione oxalate] | 0.8 | 6.5 |  | 4.2 |  |  |  |  |  |  |  |  | 1.74 | antagonistic activity | 1 | no detectable agonist activity
5 |  | O=C(OCc1ccccc1)N1CCN2C(=O)N(CCCCN3CCN(c4nsc5ccccc45)CC3)C(=O)C[C@@H]2C1 [Example 20, 7-[4-(4-Benzo[d]isothiazol-3-yl-piperazin-1-yl)-butyl]-6,8-dioxo-octahydro-pyrazino[1,2-c]pyrimidine-2-carboxylic acid benzyl ester fumarate] | 1.3 | 2.7 |  | 1.1 |  |  |  |  |  |  |  |  | 0.148 |  |  | 
6 |  | O=C1C[C@@H]2CCCCN2C(=O)N1CCCCN1CCC(c2c[nH]c3ccc(F)cc23)CC1 [Example 15, 2-{4-[4-(5-Fluoro-1H-indol-3-yl)-piperidin-1-yl]-butyl}-hexahydro-pyrido[1,2-c]pyrimidine-1,3-dione] | 2.2 | 2.9 |  | 53.6 |  |  |  |  |  |  |  |  | 0.0269 |  |  | 
7 |  | COC(=O)N1CCN2C(=O)N(CCCCN3CCN(c4nsc5ccccc45)CC3)C(=O)C[C@@H]2C1 [Example 33, 7-[4-(4-Benzo[d]isothiazol-3-yl-piperazin-1-yl)-butyl]-6,8-dioxo-octahydro-pyrazino[1,2-c]pyrimidine-2-carboxylic acid methyl ester] | 0.3 | 1.7 |  | 0.8 |  |  |  |  |  |  |  |  | 0.0611 |  |  | 
